Results reported in patent publication EP4725957A1, “GROUP OF CYCLIC ALKALINE LIPOPEPTIDE COMPOUNDS, AND PREPARATION METHOD THEREFOR AND USE THEREOF” (Institute of Medicinal Biotechnology, Chinese Academy of …, priority 2023, dated 2024).
Values after ≈ are worked out from the molar mass of the structure shown. Bridge positions count the residues as written; N and C are the ends. Square brackets hold non-standard residues; d marks the D form. Peptide text beside a SMILES is read from it. * marks the point of attachment. Heptanoyl(6-Me) = CC(C)CCCCC(=O)*; Dab = NCC[C@H](N)C(=O)O; Dap = NC[C@H](N)C(=O)O

Assays:
[1] = test system: Acinetobacter baumannii ABA19-1; assay type: cell-based; details: Acinetobacter baumannii ABA19-1
Method in brief: (§1)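 Broth microdilution MIC per CLSI in MH broth, compounds 2-fold diluted to final 64–0.03 mg/L. Inoculum (2-4) × 10^5 CFU/mL final, from 0.5 McFarland suspensions of 18-24 h colonies. Plates sealed and incubated 35-37°C for 16-20 h.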

[2] = test system: Acinetobacter baumannii NCTC 13304 (OXA-27); assay type: cell-based; details: Acinetobacter baumannii NCTC 13304 (OXA-27)
Method in brief: as §1

[3] = test system: Escherichia coli ATCC BAA-2523; assay type: cell-based; details: Escherichia coli ATCC BAA-2523
Method in brief: as §1

[4] = test system: Klebsiella pneumoniae ATCC BAA-1705 (KPC); assay type: cell-based; details: Klebsiella pneumoniae ATCC BAA-1705 (KPC)
Method in brief: as §1

[5] = test system: Pseudomonas aeruginosa PAE19-3; assay type: cell-based; details: Pseudomonas aeruginosa PAE19-3
Method in brief: as §1

[6] = Acute toxicity test in healthy mice, single tail vein injection; assay type: in vivo; details: mouse, in vivo, iv; ICR mice, single tail vein injection, Bliss method
Protocol: (§2) Healthy ICR mice aged 5-6 weeks were selected, with 5-10 mice in each group, and administered via a single tail vein injection at an administration volume of 20 mL/kg. In the preliminary test, the drug dose concentrations that caused 100% mortality and no mortality in mice after a single intravenous injection were determined. Based on this dose range, 4-5 dose groups were set up, with a dose ratio of 1:0.5 to 1:0.8 between adjacent groups. The mortality of animals within 7 days after administration was recorded. According to the mortality rate of experimental animals in each group, the median lethal dose (LD50) of the test samples, i.e., the dose causing 50% mortality of the tested animals, was calculated by the Bliss method.

Healthy ICR mice = test: as above; assay type: in vivo; details: within 7 days
Protocol: as §2

[7] = test system: Pseudomonas aeruginosa ATCC27853; test: In vivo antibacterial (protection) test in infected mice; details: infected ICR mice; for mortality rate: 7 days observation
Description: Pseudomonas aeruginosa ATCC27853 was selected for the determination of in vivo antibacterial activity.
One day before infection, the test bacteria were inoculated onto the corresponding nutrient agar plates and cultured overnight. On the day of infection, single colonies grown on the plates were picked and suspended in sterile normal saline, and the suspension was mixed thoroughly to obtain the original bacterial solution. The bacterial solution was then adjusted to the required concentration with 5% dried yeast powder and prepared freshly prior to use.
Healthy ICR mice were randomly divided into groups, with 5 mice per group, half male and half female. Bacterial solutions of different dilutions were aspirated and injected intraperitoneally into mice at a volume of 0.5 mL per 20 g of body weight. The mortality of mice was recorded within 7 days after infection. The minimum bacterial dose causing 100% mortality in mice was defined as the minimum lethal dose (MLD), which was used as the infection dose for the in vivo protection test.
Drug administration was performed via tail vein injection at 2 h, 8 h, 24 h, and 30 h after infection, with a total of 4 administrations, and the administration volume was 20 mL/kg. For the preparation of drug solutions, Compound 7, together with the control drugs polymyxin B and meropenem, were dissolved in normal saline to the required concentrations for tail vein injection, and all solutions were prepared freshly prior to use.
In the preliminary test, the drug dose concentrations that caused 100% mortality and no mortality in mice after infection with the tested bacteria were determined. Based on this dose range, 4-5 dose groups were established, with a dose ratio of 1:0.5 to 1:0.8 between adjacent groups.
Mice were randomly grouped according to body weight, with 8 mice per group (half male and half female). Each mouse was intraperitoneally infected with the test bacterial solution at a volume of 0.5 mL per 20 g of body weight, followed by tail vein injection at 2 h, 8 h, 24 h, and 30 h after infection. Mice in the blank control group were not infected with bacterial solution but were only given an equal volume of vehicle at an administration volume of 20 mL/kg. The mortality of mice was observed and recorded for 7 consecutive days.
The minimum lethal bacterial concentration of Pseudomonas aeruginosa ATCC27853 for intraperitoneal infection in mice was 4.2 × 10^2 CFU/mL, which was used as the infection dose in the formal test.
Mice in the infection control group were intraperitoneally inoculated with Pseudomonas aeruginosa ATCC27853 bacterial solution at the MLD concentration ([…]). Infection symptoms began to appear 3-4 hours after inoculation, and all 8 animals died within 48 hours (8/8), with a mortality rate of 100%.

[8] = tail vein twice daily for 2 days, Bliss method

With `CC(C)CCCCC(=O)N[C@@H](CCN)C(=O)N[C@H](C(=O)N[C@@H](CN)C(=O)N[C@H]1CCNC(=O)[C@H]([C@@H](C)O)NC(=O)[C@H](CCN)NC(=O)[C@H](CCN)NC(=O)[C@H]([C@@H](C)O)NC(=O)[C@@H](Cc2ccccc2)NC(=O)[C@H](CCN)NC1=O)[C@@H](C)O` [Compound 7, 6-methylheptanoyl-Dab-Thr-Dap-ring(4-10)[Dab-Dab-D-Phe-Thr-Dab-Dab-Thr]] ({Heptanoyl(6-Me)}-[Dab]T[Dap][Dab][Dab][dF]T[Dab][Dab]T; lactam 4-C) the MIC [1] was ≤0.03 µg/mL, the MIC [2] was ≤0.03 µg/mL and the MIC [3] was ≤0.03 µg/mL. For the same compound, the MIC [4] was ≤0.03 µg/mL, the MIC [5] was 0.125 µg/mL (≈ 0.107 µM) and the LD50 at 168 h [6] was 24.4 mg/kg. The mortality rate (Healthy ICR mice; single tail vein injection 15.36 mg/kg) was 0%, the mortality rate (Healthy ICR mice; single tail vein injection 19.2 mg/kg) was 12.5% and the mortality rate (Healthy ICR mice; single tail vein injection 24 mg/kg) was 25%. For the same compound, the mortality rate (Healthy ICR mice; single tail vein injection 30 mg/kg) was 100%, the mortality rate ([7]; 3.4 mg/kg tail vein twice daily for 2 days) was 100% and the mortality rate ([7]; 4.9 mg/kg tail vein twice daily for 2 days) was 87.5%. It also gave a mortality rate ([7]; 7 mg/kg tail vein twice daily for 2 days) of 37.5%, a mortality rate ([7]; 10 mg/kg tail vein twice daily for 2 days) of 0% and an ED5 [7, 8] of 4.54 mg/kg. For the same compound, the ED50 [7, 8] was 6.38 mg/kg and the ED95 [7, 8] was 8.96 mg/kg.
